Results as given in patent US5162336A, “Tetrahydro-pyrido-indoles as cholecystokinin and gastrin antagonists” (Rhone-Poulenc Rorer Pharmaceuticals Inc., priority 1990, dated 1992).
One block for each molecule: values may come before it.

Experiments:
[1] = system: peripherial gastrin and CCK-B (brain) receptors; conditions: cited from earlier work
gastrin receptor [2] = conditions: cited from earlier work
gastrin = conditions: rat (in vivo); cited from earlier work
[3] = system: CCK-A (peripheral CCK) receptor; conditions: second generation proglumide analogues; cited from earlier work
Gastrin receptor [4] = target: T1, Gastrin receptor (Cavia porcellus, UniProt H0VZC5); assay: Gastrin receptor binding assay (displacement of 125I-(Leu-15)-Gastrin from guinea pig fundic glands); design: species or system guinea pig (Hartley Strain); conditions: guinea pig fundic mucosa glands, 25° C., 30 min, read-out: In vitro Binding Data IC50 Gastrin
T1 construct: The fundic mucosa is gently scraped off the submucosa; from tissue; host or cells: gastric glands from fundic mucosa of Hartley guinea pig
T1 sequence (H0VZC5 1-426): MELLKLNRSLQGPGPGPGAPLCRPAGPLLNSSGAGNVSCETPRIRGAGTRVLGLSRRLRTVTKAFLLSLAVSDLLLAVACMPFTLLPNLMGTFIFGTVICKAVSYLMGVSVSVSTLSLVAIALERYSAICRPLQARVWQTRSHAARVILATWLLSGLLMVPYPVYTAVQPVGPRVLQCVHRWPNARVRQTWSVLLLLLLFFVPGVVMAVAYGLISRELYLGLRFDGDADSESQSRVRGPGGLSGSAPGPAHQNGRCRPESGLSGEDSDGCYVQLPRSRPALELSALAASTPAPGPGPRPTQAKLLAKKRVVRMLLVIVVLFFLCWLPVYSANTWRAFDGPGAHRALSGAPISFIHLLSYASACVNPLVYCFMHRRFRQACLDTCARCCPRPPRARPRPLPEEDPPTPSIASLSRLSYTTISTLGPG
Procedure: (a) Phosphate Buffered Saline (PBS): 8.743 g NaCl, 523 mg K2 HPO4 and 76.8 mg NaH2 PO4 is dissolved in 1.0 liter of deionized water and the pH of the solution is adjusted to 7.3 with 5N NaOH.
(b) Buffer A: While adding Basal Medium Eagle (BME) containing Earle's Salts, L-glutamine and 25 mM HEPES, 3 liters of deionized water is stirred, followed by the addition and dissolution of […] of sodium bicarbonate. The solution is then equilibrated with 95% O2 /5% CO2 gas followed by titration to a pH of 7.4 with NaOH.
(c) Buffer B: 18.75 mg of collagenase and […] of BSA is dissolved in 25 ml of Buffer A.
(d) Buffer C: 0.3 g of BSA is dissolved in 300 ml of Buffer A.
(e) 6.25 mg Bacitracin is dissolved in 25 ml of Buffer A.
(f) ^125 I-(Leu-15)-Gastrin: 100 microcurie dissolved in 2.0 ml of Buffer A to make 50 microcurie/ml.
(g) ^125 I-(15-methionine)-Human Gastrin: 50 microcurie/ml.
(h) (Leu 15)-Gastrin: 5.2 mg of (Leu-15)- Gastrin is dissolved in 10 ml of Buffer A. At the time of assay 1:10 dilution is made and 10 μl assay tube is used.
A guinea pig (Hartley Strain) weighing 150-200 grams, is sacrificed by CO2 asphyxiation and the stomach immediately excised, cut along the greater curvature, cleaned out and immediately immersed in a beaker containing cold PBS, pH 7.3, to insure thorough cleaning. The fundic mucosa is gently scraped off the submucosa and added to a preweighed 50 ml plastic centrifuge tube containing 30 ml of cold Buffer A. The weight of the plastic centrifuge tube containing the buffer is then subtracted from the combined weight of the mucosa and the buffer-containing tube to give the weight of the mucosa. The weight of the mucosa thus determined is recorded for later calculations.
The mucosa is then washed twice in Buffer A. After the final wash, the tissue is minced and is placed in a 100-ml glass beaker containing about 1.0 ml of Buffer A, and washed twice again by repeated centrifugation at 50×g for 5 minutes each and aspiration of supernatant. The washed tissue fragments are then added to a glass Erlenmeyer flask containing 25 ml of Buffer B and incubated in a Dubnoff shaking water bath at 37° C. for 30 minutes in a 95% O2 - 5% CO2 atmosphere. After the incubation, the digested tissue fragments in the Collegenase-buffer solution are triturated, filtered through a 200-micron nylon mesh and centrifuged at 50×g for 5 minutes. The supernatant is aspirated and discarded, the tissue washed 2× in Buffer C, resuspended in same buffer, incubated in a 37° C. water bath in an atmosphere of 95% O2 - 5% CO2 for 5 minutes, and centrifuged. The pelleted glands are suspended in Buffer D at a desired concentration of 2x10^5 glands/ml to use in the receptor binding assay.
Six minisorp tubes (16×100 mm) are serially marked and divided into two groups thus: tubes #1, #2, and #3 are marked "T" for "Totals" and tubes #4, #5, and #6 are marked "NS" for "Non-Specifics." Into each of the six tubes are added 220 μl of prepared glands in Buffer D; 20 μl of Buffer A in tubes #1, #2, and #3; 10 μl, in tubes #4, #5 and #6; (10μ of (Leu-15)-Gastrin (25 μM) in tubes #4, #5, and #6. The six tubes are then transferred immediately to a 25° C. water bath and challenged each with 10 μl ^125 I-(Leu-15)-Gastrin diluted as per calculation. The tubes are then covered with a gas hood connected to a 95% O2 - 5% CO2 gas source and mechanically agitated in a shaker for 30 minutes.
At the end of the incubation period, the assay mixtures are each filtered through a Whatman glass fiber filter B on a Brandel tissue harvester and washed twice with Buffer A. The filters are pre-soaked in Buffer C before use. The filter strips are removed after the final wash and individual filters counted in a Gamma Counter. The counts from the "Non-Specific" tubes are then averaged and subtracted from the average "Totals" to give the Specific Counts. […]

gastrin receptor [5] = conditions: cited from earlier work; remark: listed apart in the source
CCK-A receptor = target: T2, CCK-A receptor (Rattus norvegicus, UniProt P30551); assay: CCK-A receptor binding assay (displacement of 3H-L-364,718 from rat pancreas membranes); design: species or system Sprague-Dawley rat; conditions: 3H-L-364,718 0.2 nM, 37° C., 30 min, read-out: In vitro Binding Data IC50 CCK
T2 construct: from tissue; host or cells: pancreas membranes of Sprague-Dawley rat
T2 sequence (P30551 1-444): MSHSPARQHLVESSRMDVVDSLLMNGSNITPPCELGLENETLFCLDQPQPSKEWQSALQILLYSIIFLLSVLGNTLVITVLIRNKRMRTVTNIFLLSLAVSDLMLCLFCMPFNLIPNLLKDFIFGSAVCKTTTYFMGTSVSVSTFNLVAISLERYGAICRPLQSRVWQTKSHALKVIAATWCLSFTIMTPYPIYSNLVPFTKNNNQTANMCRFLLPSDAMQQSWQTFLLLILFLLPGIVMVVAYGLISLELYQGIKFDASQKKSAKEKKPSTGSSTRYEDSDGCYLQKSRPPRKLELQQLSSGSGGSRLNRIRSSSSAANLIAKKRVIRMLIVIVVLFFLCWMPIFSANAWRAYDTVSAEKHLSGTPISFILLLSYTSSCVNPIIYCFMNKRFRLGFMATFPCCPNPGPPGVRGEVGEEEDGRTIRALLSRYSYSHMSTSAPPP
Procedure: Washer Buffer (for use with Brandel Cell Harvester):
30 liters of 50 mM Tris, ph 7.7: Dissolve 181.7 g. Tris base in 4 1. deionized water at room temperature. Adjust pH to 7.7 with 6 N HCl and Q.S. to 30 1.
50 mM Tris-Cl, 5 mM MgCl2, 5 mM dithio-thretiol, 0.14 mg/ml bacitracin, and 2 mg/ml bovine serum albumin.
1 liter of 5X stock buffer:
30.28 g. Tris base per 800 ml D.I. water 5.09 g. MgCl2 6 H2 O, pH to 7.7 at room temperature with 6N HCl and Q.S. 1 liter, store at 4° C.
250 ml working buffer kept on ice:
50 ml of 5X stock buffer 0.1928 g. dithiothretiol (5 mM), 35 mg bacitracin (0.14 mg/ml), and 0.5 g. BSA (2mg/ml).
Unlabeled L-364,718(nonpeptide ligand):
Unlabeled L-364,718 (300 nM final concentration) is used to define nonspecific binding. A 3 mM solution is made in absolute ethanol and stored in a scintillation vial at -70° C. Aliquots are diluted 100-fold in the assay.
A Sprague-Dawley rat is sacrificed by asphyxiation with carbon dioxide and the pancreas removed. The tissue is immersed in cold wash buffer and carefully trimmed of fat, connective tissue, blood vessels, blotted and weighed. The tissue is homogenized in a Sorvall SS-34 centrifuge tube in 50 volumes of wash buffer using a Polytron at setting 7 for 15 seconds. The tissue is centrifuged (Sorvall SS-34) at 19,000 rpm for 10 min. The supernatant is poured off and the pellet resuspended in sufficient buffer to obtain a contraction of 40 mg tissue wet weight/ml. Separate aliquots (2,3ml) are placed in each of 8 centrifuge tubes and centrifuged as before. The supernatants are poured off and the pellets stored at -70° C. Stored pellets are sufficient for the assay of 160 tubes and are stable for 1-2 months.
During the assay the stored membranes are resuspended in 40 ml of assay buffer by scraping the pellet off the wall of the centrifuge tube and washing it into a teflon-glass homogenizer. Membranes are resuspended by 5 passes with the teflon pestle and the membranes stored on ice until ready for use.
Preparation of Compounds:
Compounds are prepared in DMSO (dimethyl sulfoxide) or in assay buffer. The majority of structures active as CCK antagonists generally require DMSO for complete solubility. Approximately 2-3 mg of compound is weighed directly into a 13×100 mm test tube and sufficient DMSO added to obtain a working stock solution at a concentration 100 fold greater than the highest concentration being tested in the assay. A total of 10 μl of each concentration of drug is added into a final volume of 1 ml to yield a 100 fold dilution of the, working stock solution. Control binding tubes ("totals and nonspecifics") are also treated with 10 μl DMSO.
^3 H-L-364,718 is obtained from New England Nuclear (Cat. #971) and is used as supplied. The final assay concentration of ^3 H-L-364,718 in assay buffer should be 0.2 nM in a final assay volume of 1 ml. ^3 H-L-364,718 (0.2 pmol) is added into the assay in a volume of 25 μl (8 nM working stock solution). The required dilution (usually>1000 fold) is obtained by dividing the working stock concentration into the concentration of the specific lot.
Samples are prepared in triplicate and a "total" (buffer addition) and "nonspecific" (300 nM unlabeled L-364,718) set of tubes included in each set of 24 tubes. The remaining 6 sets of triplicates are used either for screening or IC50 determinations. The order of addition is drugs-DMSO, buffer, unlabeled L-364,718, ^3 H-L-364,718, and to start the assay, membranes.
While tubes are incubating a shaking water bath at 37° C. for 30 min Brandel deposit/dispense filters are presoaked in wash buffer. Following the end of the incubation, sets of 24 tubes are rapidly washed with assay buffer as follows. Assay buffer is added to the incubation tubes to the height of the uppermost cross support in the standard Brandel test tube rack and the contents immediately aspirated. This process is repeated twice more, the filter removed, marked and the next set of 24 tubes processed. […]

Molecule: Cc1cccc(NC(=O)N[C@@H]2N=C(c3ccccc3)c3ccccc3N(C)C2=O)c1 [L-365,260]
selectivity for peripheral gastrin and CCK-B (brain) receptors [1]: selective for the peripherial gastrin and CCK-B (brain) receptors

Molecule: Boc-Trp-Leu-gAsp-m(R,S)Phe-NH2
binding to the gastrin receptor (gastrin receptor [2]; analogues of CCK-4 with partial retroinverso modifications): bind strongly | block the effects of gastrin (gastrin): block the effects of gastrin

Molecule: CCCCCN(CCCCC)C(=O)C(CCC(=O)O)NC(=O)c1ccc(Cl)c(Cl)c1 (centres unmarked) [Lorglumide]
receptor affinity and selectivity [3]: considerably better receptor affinity and selectivity

Molecule: CCCCCN(CCCOC)C(=O)C(CCC(=O)O)NC(=O)c1ccc(Cl)c(Cl)c1 (centres unmarked) [Loxiglumide]
receptor affinity and selectivity [3]: considerably better receptor affinity and selectivity

IC50 (Gastrin receptor [4]): 0.23 µM
Molecule: NC(=O)[C@H](CC(=O)O)NC(=O)[C@@H]1CCCN1C(=O)[C@H]1Cc2c([nH]c3ccccc23)CN1C(=O)Nc1ccc(Cl)c(Cl)c1 [Example 25]

IC50 (Gastrin receptor [4]): 4 µM
Molecule: CC(C)C[C@@H](NC(=O)[C@@H]1Cc2c([nH]c3ccccc23)CN1C(=O)Nc1ccc(Cl)c(Cl)c1)C(=O)N[C@H](CC(=O)O)C(N)=O [Example 71]

Molecule: Boc-Trp-Leu-.PSI.(CH2 NH)-Asp-Phe-NH2
agonist activity (gastrin receptor [5]): no agonist activity | binding affinity (gastrin receptor [2]; compared with Boc-Trp-Leu-Asp-Phe-NH2): same binding affinity as Boc-Trp-Leu-Asp-Phe-NH2

IC50 (Gastrin receptor [4]): 90 µM
Molecule: COc1ccc(NC(=O)N2Cc3[nH]c4ccccc4c3C[C@@H]2C(=O)Nc2ccccc2C(=O)N2CCCC2)cc1 [Example 21, pyrrolidine-2-N-[(3R)-2-(4-methoxyphenylcarbamoyl)-1,2,3,4-tetrahydro-9H-pyrido[3,4-b]indole-3-carboxyl]aminobenzamide]

IC50 (CCK-A receptor): 25 µM
Molecule: NC(=O)[C@H](CC(=O)OCc1ccccc1)NC(=O)[C@H]1Cc2c([nH]c3ccccc23)CN1C(=O)c1ccccc1 [Example 7, N-[(3R)-2-benzoyl-1,2,3,4-tetrahydro-9H-pyrido[3,4-b]indole-3-carboxyl]-L-aspartic acid amide β-benzyl ester]
